These results are taken from patent publication US20060159772A1, “Fungicidal compositions” (priority 2002, published 2006).

Like-named read-outs stand apart in the source and are kept apart here.

One test relates to Plasmopara viticola. In words: Greenhouse test against downy mildew, preventive application to vine leaves (Example 4). The class given is in vivo, Plasmopara viticola on vine plants, cv. Dolcetto. Particulars: for pest or weed control at 0.2 ppm: 0.20 ppm. The method, then: Determination of the fungicidal efficacy against downy mildew (Plasmopara viticola) in preventive application to vine leaves in greenhouse.
Leaves of vine plants, cv. Dolcetto, grown up in pots in conditioned environment at 25° C. and 60% relative humidity, were sprayed on both sides with hydroacetonic solutions (20% of acetone by volume) of the compounds under testing, the potassium phosphite (K2HPO3+KH2PO3) aqueous solutions and the mixtures of both components.
Seven days after the treatments, the leaves of treated plants and untreated controls were sprayed on the lower surface with aqueous suspension of Plasmopara viticola conidia (200.000 conidia/ml); after beeing kept for 24 h at 21° C. in environment moist at saturation, the plants were transfered to other conditioned environment at 70% relative humidity and 21° C. for 7 days.
After this period the degree of infection was evaluated and the activity of the compounds tested was expressed as % of disease control in comparison to the untreated controls: 100=healty plant; 0=completely infected plant.
In tables 6-20 are reported the results obtained for the compounds tested alone and in mixture with potassium phosphite at the indicated dosages. When the % disease control value found is higher than the value expected applying the Limpel formula (see Example 3), a synergic effect is verified.

In the next test the test system is Phytophthora infestans. The class given is in vivo, Phytophthora infestans on potato plants, Miura variety. As to conditions: 1400 g/hl active principle; average of 3 tests on potato plants in Great Britain, 2002.

Consider `COCC(=O)N(c1c(C)cccc1C)[C@H](C)C(=O)OC` [mefenoxam, methyl N-(2-methoxyacetyl)-N-2,6-xylyl-R-alaninate], for which, in the test on Plasmopara viticola (Plasmopara viticola, topical, 168 h, 0.10 ppm, Table 8, read-out: % Disease Control: found), the pest or weed control at 0.1 ppm worked out at 48%.

With `CO/C=C(/C(=O)OC)c1ccccc1Oc1cc(Oc2ccccc2C#N)ncn1` [azoxystrobin], the “% Disease Control: found” value in the test on Plasmopara viticola (0.11 ppm, Table 11) is reported as 69%.

For the molecule `Cc1ccc(-c2c(Cl)nc(C#N)n2S(=O)(=O)N(C)C)cc1` [cyazofamide, 2-cyano-4-chloro-′5-(4-methylphenyl)-1-(N,N-dimethylaminosulfamoyl)-imidazole], the “% Disease Control: found” value in the test with Plasmopara viticola (15 ppm, Table 14) came out at 68%.

Take `N#Cc1c(Cl)c(Cl)c(Cl)c(C#N)c1Cl` [chlorothalonil, 1,3-dicyano-2,4,5,6-tetrachlorobenzene]: in the test with Plasmopara viticola (Plasmopara viticola, topical, 168 h, 7.5 ppm, Table 16, read-out: % Disease Control: found), the pest or weed control at 7.5 ppm was determined as 46%.

Regarding `O=[N+]([O-])c1cc(C(F)(F)F)c(Cl)c([N+](=O)[O-])c1Nc1ncc(C(F)(F)F)cc1Cl` [fluazinam, 3-chloro-N-(3-chloro-5-trifluoromethyl-2-pyridyl)-α,α,α-trifluoro-2,6-dinitro-p-toluidine], the pest or weed control at 20 ppm with Plasmopara viticola (Plasmopara viticola, topical, 168 h, 20 ppm, Table 20, read-out: % Disease Control: found) amounted to 48%.

For `Cc1ccc(C(C)NC(=O)C(NC(=O)OC(C)C)C(C)C)cc1` (centres unmarked) [iprovalicarb, O-(1-methyl-ethyl)-N-[2-methyl-1-[[[1-(4-methylphenyl)-ethyl]amino]carbonyl]propyl]carbamate], the “% Disease Control: found” value in the test on Plasmopara viticola (0.45 ppm, Table 9) is recorded as 50%.

For `CC(C)OC(=O)N[C@H](C(=O)N[C@H](C)c1nc2ccc(F)cc2s1)C(C)C` [benthiavalicarb], the pest or weed control at 0.25 ppm with Plasmopara viticola (Plasmopara viticola, topical, 168 h, 0.25 ppm, Table 10, read-out: % Disease Control: found) was found to be 47%.

Take `CC1(c2ccc(Oc3ccccc3)cc2)OC(=O)N(Nc2ccccc2)C1=O` (centres unmarked) [famoxadone, 5-methyl-5-(4-phenoxyphenyl)-3-(phenylamino)oxazolidin-2,4-dione]: the pest or weed control at 0.45 ppm in the test on Plasmopara viticola (Plasmopara viticola, topical, 168 h, 0.45 ppm, Table 12, read-out: % Disease Control: found) was found to be 56%.

As for `COCC(=O)N(c1c(C)cccc1C)N1CCOC1=O` [oxadixyl, 2-methoxy-N-(2-oxo-1,3-oxazolidin-3-yl)aceto-2′,6′-xylidide], the pest or weed control at 0.2 ppm with Plasmopara viticola (Plasmopara viticola, topical, 168 h, Table 18, read-out: % Disease Control: found) came to 49%.

Take potassium phosphite (K2HPO3+KH2PO3): the “% disease control leaves” value with Phytophthora infestans is 23%. For the same molecule, the “% Disease Control: found” value in the test on Plasmopara viticola (60 ppm, inoculation 7 days after treatment) is listed as 35%.

`COCC(=O)N(c1c(C)cccc1C)C(C)C(=O)OC` (centres unmarked) [metalaxyl, methyl N-(2-methoxyacetyl)-N-2,6-xylyl-RS-alaninate]: the pest or weed control at 0.2 ppm with Plasmopara viticola (Plasmopara viticola, topical, 168 h, Table 7, read-out: % Disease Control: found) came out at 45%.

Take `COc1ccc(C(=CC(=O)N2CCOCC2)c2ccc(Cl)cc2)cc1OC` [dimethomorph, (E,Z)-4-[3-(4-chlorophenyl)-3-(3,4-dimethoxyphenyl)acryloyl]-morpholine]: the pest or weed control at 0.45 ppm with Plasmopara viticola (Plasmopara viticola, topical, 168 h, 0.45 ppm, Table 15, read-out: % Disease Control: found) amounted to 73%.

In the case of `CCNC(=O)NC(=O)C(C#N)=NOC` [cymoxanil, 1-(2-cyano-2-methoxyimino-acetyl)-3-ethyl urea], the pest or weed control at 30 ppm in the test with Plasmopara viticola (Plasmopara viticola, topical, 168 h, 30 ppm, Table 6, read-out: % Disease Control: found) stood at 59%.
